# Measurements as given in the NIST ThermoML archive (doi:10.1016/j.jct.2007.09.007).
# Numbers after ± are expanded uncertainties.
# Assay: xn = mol fraction of the nth substance listed
# Conditions: 100 kPa, Liquid
smiles,measurement,setting,value
C1CCOC1 [tetrahydrofuran] + CC#N,mass density,"288.15 K, x1 = 0.0053",788.34 ± 0.34 kg/m3
same,mass density,"288.15 K, x1 = 0.0104",789.18 ± 0.34 kg/m3
same,mass density,"288.15 K, x1 = 0.0197",790.72 ± 0.34 kg/m3
same,mass density,"288.15 K, x1 = 0.0294",792.28 ± 0.34 kg/m3
same,mass density,"288.15 K, x1 = 0.0389",793.83 ± 0.34 kg/m3
same,mass density,"288.15 K, x1 = 0.0993",803.2 ± 0.33 kg/m3
same,mass density,"288.15 K, x1 = 0.1598",812.11 ± 0.32 kg/m3
same,mass density,"288.15 K, x1 = 0.1978",817.43 ± 0.31 kg/m3
same,mass density,"288.15 K, x1 = 0.2441",823.65 ± 0.31 kg/m3
same,mass density,"288.15 K, x1 = 0.2845",828.9 ± 0.3 kg/m3
same,mass density,"288.15 K, x1 = 0.3445",836.2 ± 0.29 kg/m3
same,mass density,"288.15 K, x1 = 0.4022",842.91 ± 0.29 kg/m3
same,mass density,"288.15 K, x1 = 0.4545",848.62 ± 0.28 kg/m3
same,mass density,"288.15 K, x1 = 0.4995",853.35 ± 0.28 kg/m3
same,mass density,"288.15 K, x1 = 0.5298",856.4 ± 0.28 kg/m3
same,mass density,"288.15 K, x1 = 0.5552",858.94 ± 0.27 kg/m3
same,mass density,"288.15 K, x1 = 0.6054",863.65 ± 0.27 kg/m3
same,mass density,"288.15 K, x1 = 0.6405",866.78 ± 0.27 kg/m3
same,mass density,"288.15 K, x1 = 0.6603",868.52 ± 0.27 kg/m3
same,mass density,"288.15 K, x1 = 0.6976",871.74 ± 0.27 kg/m3
same,mass density,"288.15 K, x1 = 0.747",875.76 ± 0.26 kg/m3
same,mass density,"288.15 K, x1 = 0.8003",879.84 ± 0.26 kg/m3
same,mass density,"288.15 K, x1 = 0.8179",881.06 ± 0.26 kg/m3
same,mass density,"288.15 K, x1 = 0.8537",883.67 ± 0.26 kg/m3
same,mass density,"288.15 K, x1 = 0.8975",886.63 ± 0.26 kg/m3
same,mass density,"288.15 K, x1 = 0.9502",890 ± 0.26 kg/m3
same,mass density,"288.15 K, x1 = 0.9671",890.93 ± 0.26 kg/m3
same,mass density,"288.15 K, x1 = 0.9745",891.4 ± 0.26 kg/m3
same,mass density,"288.15 K, x1 = 0.9854",892.01 ± 0.26 kg/m3
same,mass density,"288.15 K, x1 = 0.9877",892.14 ± 0.26 kg/m3
same,mass density,"288.15 K, x1 = 0.994",892.51 ± 0.26 kg/m3
same,mass density,"293.15 K, x1 = 0.0053",783 ± 0.35 kg/m3
same,mass density,"293.15 K, x1 = 0.0104",783.84 ± 0.35 kg/m3
same,mass density,"293.15 K, x1 = 0.0197",785.35 ± 0.35 kg/m3
same,mass density,"293.15 K, x1 = 0.0294",786.96 ± 0.35 kg/m3
same,mass density,"293.15 K, x1 = 0.0389",788.5 ± 0.34 kg/m3
same,mass density,"293.15 K, x1 = 0.0993",797.8 ± 0.33 kg/m3
same,mass density,"293.15 K, x1 = 0.1598",806.78 ± 0.33 kg/m3
same,mass density,"293.15 K, x1 = 0.1978",812.02 ± 0.32 kg/m3
same,mass density,"293.15 K, x1 = 0.2441",818.27 ± 0.31 kg/m3
same,mass density,"293.15 K, x1 = 0.2845",823.5 ± 0.31 kg/m3
same,mass density,"293.15 K, x1 = 0.3445",830.81 ± 0.3 kg/m3
same,mass density,"293.15 K, x1 = 0.4022",837.51 ± 0.29 kg/m3
same,mass density,"293.15 K, x1 = 0.4545",843.24 ± 0.29 kg/m3
same,mass density,"293.15 K, x1 = 0.4995",847.94 ± 0.29 kg/m3
same,mass density,"293.15 K, x1 = 0.5298",851.03 ± 0.28 kg/m3
same,mass density,"293.15 K, x1 = 0.5552",853.51 ± 0.28 kg/m3
same,mass density,"293.15 K, x1 = 0.6054",858.25 ± 0.28 kg/m3
same,mass density,"293.15 K, x1 = 0.6405",861.42 ± 0.28 kg/m3
same,mass density,"293.15 K, x1 = 0.6603",863.15 ± 0.27 kg/m3
same,mass density,"293.15 K, x1 = 0.6976",866.29 ± 0.27 kg/m3
same,mass density,"293.15 K, x1 = 0.747",870.32 ± 0.27 kg/m3
same,mass density,"293.15 K, x1 = 0.8003",874.36 ± 0.27 kg/m3
same,mass density,"293.15 K, x1 = 0.8179",875.68 ± 0.27 kg/m3
same,mass density,"293.15 K, x1 = 0.8537",878.23 ± 0.27 kg/m3
same,mass density,"293.15 K, x1 = 0.8975",881.19 ± 0.27 kg/m3
same,mass density,"293.15 K, x1 = 0.9502",884.59 ± 0.26 kg/m3
same,mass density,"293.15 K, x1 = 0.9671",885.55 ± 0.26 kg/m3
same,mass density,"293.15 K, x1 = 0.9745",886.03 ± 0.26 kg/m3
same,mass density,"293.15 K, x1 = 0.9854",886.65 ± 0.26 kg/m3
same,mass density,"293.15 K, x1 = 0.9877",886.76 ± 0.26 kg/m3
same,mass density,"293.15 K, x1 = 0.994",887.12 ± 0.26 kg/m3
same,mass density,"298.15 K, x1 = 0.0053",777.57 ± 0.36 kg/m3
same,mass density,"298.15 K, x1 = 0.0104",778.44 ± 0.36 kg/m3
same,mass density,"298.15 K, x1 = 0.0197",779.94 ± 0.35 kg/m3
same,mass density,"298.15 K, x1 = 0.0294",781.56 ± 0.35 kg/m3
same,mass density,"298.15 K, x1 = 0.0389",783.1 ± 0.35 kg/m3
same,mass density,"298.15 K, x1 = 0.0993",792.41 ± 0.34 kg/m3
same,mass density,"298.15 K, x1 = 0.1598",801.3 ± 0.33 kg/m3
same,mass density,"298.15 K, x1 = 0.1978",806.63 ± 0.33 kg/m3
same,mass density,"298.15 K, x1 = 0.2441",812.84 ± 0.32 kg/m3
same,mass density,"298.15 K, x1 = 0.2845",818.1 ± 0.31 kg/m3
same,mass density,"298.15 K, x1 = 0.3445",825.36 ± 0.31 kg/m3
same,mass density,"298.15 K, x1 = 0.4022",832.02 ± 0.3 kg/m3
same,mass density,"298.15 K, x1 = 0.4545",837.79 ± 0.3 kg/m3
same,mass density,"298.15 K, x1 = 0.4995",842.49 ± 0.29 kg/m3
same,mass density,"298.15 K, x1 = 0.5298",845.55 ± 0.29 kg/m3
same,mass density,"298.15 K, x1 = 0.5552",848.07 ± 0.29 kg/m3
same,mass density,"298.15 K, x1 = 0.6054",852.78 ± 0.28 kg/m3
same,mass density,"298.15 K, x1 = 0.6405",855.96 ± 0.28 kg/m3
same,mass density,"298.15 K, x1 = 0.6603",857.69 ± 0.28 kg/m3
same,mass density,"298.15 K, x1 = 0.6976",860.83 ± 0.28 kg/m3
same,mass density,"298.15 K, x1 = 0.747",864.86 ± 0.28 kg/m3
same,mass density,"298.15 K, x1 = 0.8003",868.9 ± 0.27 kg/m3
same,mass density,"298.15 K, x1 = 0.8179",870.22 ± 0.27 kg/m3
same,mass density,"298.15 K, x1 = 0.8537",872.77 ± 0.27 kg/m3
same,mass density,"298.15 K, x1 = 0.8975",875.76 ± 0.27 kg/m3
same,mass density,"298.15 K, x1 = 0.9502",879.13 ± 0.27 kg/m3
same,mass density,"298.15 K, x1 = 0.9671",880.09 ± 0.27 kg/m3
same,mass density,"298.15 K, x1 = 0.9745",880.56 ± 0.27 kg/m3
same,mass density,"298.15 K, x1 = 0.9854",881.17 ± 0.27 kg/m3
same,mass density,"298.15 K, x1 = 0.9877",881.29 ± 0.27 kg/m3
same,mass density,"298.15 K, x1 = 0.994",881.66 ± 0.27 kg/m3
same,mass density,"303.15 K, x1 = 0.0053",772.17 ± 0.36 kg/m3
same,mass density,"303.15 K, x1 = 0.0104",773.01 ± 0.36 kg/m3
same,mass density,"303.15 K, x1 = 0.0197",774.52 ± 0.36 kg/m3
same,mass density,"303.15 K, x1 = 0.0294",776.11 ± 0.36 kg/m3
same,mass density,"303.15 K, x1 = 0.0389",777.67 ± 0.36 kg/m3
same,mass density,"303.15 K, x1 = 0.0993",786.97 ± 0.35 kg/m3
same,mass density,"303.15 K, x1 = 0.1598",795.84 ± 0.34 kg/m3
same,mass density,"303.15 K, x1 = 0.1978",801.18 ± 0.33 kg/m3
same,mass density,"303.15 K, x1 = 0.2441",807.39 ± 0.33 kg/m3
same,mass density,"303.15 K, x1 = 0.2845",812.64 ± 0.32 kg/m3
same,mass density,"303.15 K, x1 = 0.3445",819.91 ± 0.31 kg/m3
same,mass density,"303.15 K, x1 = 0.4022",826.57 ± 0.31 kg/m3
same,mass density,"303.15 K, x1 = 0.4545",832.34 ± 0.3 kg/m3
same,mass density,"303.15 K, x1 = 0.4995",837.08 ± 0.3 kg/m3
same,mass density,"303.15 K, x1 = 0.5298",840.1 ± 0.3 kg/m3
same,mass density,"303.15 K, x1 = 0.5552",842.6 ± 0.29 kg/m3
same,mass density,"303.15 K, x1 = 0.6054",847.29 ± 0.29 kg/m3
same,mass density,"303.15 K, x1 = 0.6405",850.47 ± 0.29 kg/m3
same,mass density,"303.15 K, x1 = 0.6603",852.2 ± 0.29 kg/m3
same,mass density,"303.15 K, x1 = 0.6976",855.34 ± 0.28 kg/m3
same,mass density,"303.15 K, x1 = 0.747",859.36 ± 0.28 kg/m3
same,mass density,"303.15 K, x1 = 0.8003",863.41 ± 0.28 kg/m3
same,mass density,"303.15 K, x1 = 0.8179",864.73 ± 0.28 kg/m3
same,mass density,"303.15 K, x1 = 0.8537",867.28 ± 0.28 kg/m3
same,mass density,"303.15 K, x1 = 0.8975",870.25 ± 0.28 kg/m3
same,mass density,"303.15 K, x1 = 0.9502",873.61 ± 0.28 kg/m3
same,mass density,"303.15 K, x1 = 0.9671",874.59 ± 0.28 kg/m3
same,mass density,"303.15 K, x1 = 0.9745",875.07 ± 0.28 kg/m3
same,mass density,"303.15 K, x1 = 0.9854",875.7 ± 0.28 kg/m3
same,mass density,"303.15 K, x1 = 0.9877",875.8 ± 0.28 kg/m3
same,mass density,"303.15 K, x1 = 0.994",876.13 ± 0.28 kg/m3
